From patent US6355799B1, “Substituted benzene compounds, process for their preparation, and herbicidal and defoliant compositions containing them” (ISK Americas Incorporated, priority 1997, dated 2002)

Key:
Format in all cases: in vivo
[1] = tested on: upland rice (Oryza sp., var. Tebonnet, RICE); assay: Post-emerge test, crop safety; conditions: post-emerge, 14 days after application, rating scale 0-100
Summary of the method: (§1)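 Rating: 0–100 visual injury, 14 DAA. Application: acetone, 187 l/ha, 15–1000 g ai/ha, flat-fan track sprayer with nozzle 40–45 cm above soil or canopy. Post-emerge runs used 0.25% v/v surfactant on 2–3 leaf plants.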

[2] = tested on: field corn (Zea mays L., var. Dekalb 535, CORN); assay: Post-emerge test, crop safety; conditions: post-emerge, 14 days after application, rating scale 0-100
Summary of the method: as §1

[3] = tested on: ivyleaf morningglory (Ipomoea hederacea, IPOHE); assay: Post-emerge test, greenhouse herbicide activity screening; conditions: post-emerge, 14 days after application, rating scale 0-100
Summary of the method: (§2)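 Compounds in acetone were track-sprayed at 187 l/ha, 15–1000 g ai/ha, onto sandy loam pots. Pre-emerge seeds were sown one day before spraying, with surface watering afterwards. Post-emerge plants were at the 2–3 leaf stage and sprayed with 0.25% v/v non-ionic surfactant. Injury was rated 0–100 at 14 days.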

[4] = tested on: sicklepod (Cassia obtusifolia, CASOB); assay: as above; conditions: post-emerge, 14 days after application, rating scale 0-100
Summary of the method: as §2

[5] = tested on: large crabgrass (Digitaria sanguinalis, DIGSA); assay: as above; conditions: post-emerge, 14 days after application, rating scale 0-100
Summary of the method: as §2

[6] = tested on: barnyardgrass (Echinochloa crus-galli, ECHCG); assay: as above; conditions: post-emerge, 14 days after application, rating scale 0-100
Summary of the method: as §2

[7] = tested on: velvetleaf (Abutilon theophrasti, ABUTH); assay: as above; conditions: post-emerge, 14 days after application, rating scale 0-100
Summary of the method: as §2

[8] = tested on: lambsquarters (Chenopodium album, CHEAL); assay: as above; conditions: post-emerge, 14 days after application, rating scale 0-100
Summary of the method: as §2

[9] = tested on: redroot pigweed (Amaranthus retroflexus, AMARE); assay: as above; conditions: post-emerge, 14 days after application
Summary of the method: as §2

[10] = tested on: johnsongrass (Sorghum halepense, SORHA); assay: as above; conditions: post-emerge, 14 days after application, rating scale 0-100
Summary of the method: as §2

[11] = tested on: green foxtail (Setaria viridis, SETVI); assay: as above; conditions: post-emerge, 14 days after application, rating scale 0-100
Summary of the method: as §2

[12] = tested on: upland rice (Oryza sp., var. Tebonnet, RICE); assay: Pre-emerge test, crop safety; conditions: for phytotoxicity rating RICE (crop damage): pre-emerge, 14 days after application, scale 0-100; for Pre-emerge Herbicidal Activity RICE: crop damage rating 0-100, 14 days after application
Summary of the method: (§3)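 Fourteen days after spraying, crop and weed injury was graded visually from 0, no effect, to 100, every plant dead. Test substances were dissolved in acetone and applied at 15–1000 g ai/ha with a flat-fan nozzle. Application was either pre-emergence, one day after sowing, or post-emergence at the 2–3 leaf stage.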

[13] = tested on: field corn (Zea mays L., var. Dekalb 535, CORN); assay: Pre-emerge test, crop safety; conditions: for phytotoxicity rating CORN (crop damage): pre-emerge, 14 days after application, scale 0-100; for Pre-emerge Herbicidal Activity CORN: crop damage rating 0-100, 14 days after application
Summary of the method: as §3

[14] = tested on: ivyleaf morningglory (Ipomoea hederacea, IPOHE); assay: Pre-emerge test, greenhouse herbicide activity screening; conditions: for phytotoxicity rating IPOHE: pre-emerge, 14 days after application, scale 0-100; for Pre-emerge Herbicidal Activity IPOHE: phytotoxicity rating 0-100, 14 days after application
Summary of the method: (§4)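 Compounds in acetone were track-sprayed at 15–1000 g ai/ha: pre-emergence onto soil sown the previous day, then top-watered to incorporate and later bottom-watered; post-emergence onto 2–3 leaf plants with 0.25% v/v surfactant, bottom-watered only. Ratings on a 0–100 phytotoxicity scale were taken at day 14.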

[15] = tested on: sicklepod (Cassia obtusifolia, CASOB); assay: as above; conditions: for phytotoxicity rating CASOB: pre-emerge, 14 days after application, scale 0-100; for Pre-emerge Herbicidal Activity CASOB: phytotoxicity rating 0-100, 14 days after application
Summary of the method: as §4

[16] = tested on: large crabgrass (Digitaria sanguinalis, DIGSA); assay: as above; conditions: for phytotoxicity rating DIGSA: pre-emerge, 14 days after application, scale 0-100; for Pre-emerge Herbicidal Activity DIGSA: phytotoxicity rating 0-100, 14 days after application
Summary of the method: as §4

[17] = tested on: barnyardgrass (Echinochloa crus-galli, ECHCG); assay: as above; conditions: for phytotoxicity rating ECHCG: pre-emerge, 14 days after application, scale 0-100; for Pre-emerge Herbicidal Activity ECHCG: phytotoxicity rating 0-100, 14 days after application
Summary of the method: as §4

[18] = tested on: velvetleaf (Abutilon theophrasti, ABUTH); assay: as above; conditions: for phytotoxicity rating ABUTH: pre-emerge, 14 days after application, scale 0-100; for Pre-emerge Herbicidal Activity ABUTH: phytotoxicity rating 0-100, 14 days after application
Summary of the method: as §4

[19] = tested on: lambsquarters (Chenopodium album, CHEAL); assay: as above; conditions: for phytotoxicity rating CHEAL: pre-emerge, 14 days after application, scale 0-100; for Pre-emerge Herbicidal Activity CHEAL: phytotoxicity rating 0-100, 14 days after application
Summary of the method: as §4

[20] = tested on: johnsongrass (Sorghum halepense, SORHA); assay: as above; conditions: for phytotoxicity rating SORHA: pre-emerge, 14 days after application, scale 0-100; for Pre-emerge Herbicidal Activity SORHA: phytotoxicity rating 0-100, 14 days after application
Summary of the method: as §4

[21] = tested on: green foxtail (Setaria viridis, SETVI); assay: as above; conditions: for phytotoxicity rating SETVI: pre-emerge, 14 days after application, scale 0-100; for Pre-emerge Herbicidal Activity SETVI: phytotoxicity rating 0-100, 14 days after application
Summary of the method: as §4

[22] = tested on: redroot pigweed (Amaranthus retroflexus, AMARE); assay: as above; conditions: for phytotoxicity rating AMARE: pre-emerge, 14 days after application, scale 0-100; for Pre-emerge Herbicidal Activity AMARE: phytotoxicity rating 0-100, 14 days after application
Summary of the method: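 Sandy loam pots; pre-emerge: sown 1 d pre-spray, surface-watered after, then bottom-watered. Post-emerge: sown 8–21 d before, 2–3 leaf stage, + 0.25% v/v NIS, bottom-watered. Acetone, 187 l/ha track spray, 15–1000 g ai/ha. 0–100 injury score, day 14.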

[23] = 250 g ai/ha, rating scale 0-100

COc1c(Br)cc(F)c(-n2c(=O)cc(C(F)(F)F)n(C)c2=O)c1N(C(=O)C=Cc1ccccc1)C(=O)C=Cc1ccccc1 [2-178]
RICE phytotoxicity rating (crop damage) ([1]; 63 g ai/ha): 0 | RICE phytotoxicity rating (crop damage) ([1]; 250 g ai/ha): 0 | CORN phytotoxicity rating (crop damage) ([2]; 63 g ai/ha): 0 | CORN phytotoxicity rating (crop damage) ([2]; 250 g ai/ha): 0 | IPOHE phytotoxicity rating ([3]; 63 g ai/ha): 30 | IPOHE phytotoxicity rating ([3]; 250 g ai/ha): 20 | CASOB phytotoxicity rating ([4]; 63 g ai/ha): 0 | CASOB phytotoxicity rating ([4]; 250 g ai/ha): 0 | DIGSA phytotoxicity rating ([5]; 63 g ai/ha): 0 | DIGSA phytotoxicity rating ([5]; 250 g ai/ha): 0 | ECHCG phytotoxicity rating ([6]; 63 g ai/ha): 0 | ECHCG phytotoxicity rating ([6]; 250 g ai/ha): 0 | ABUTH phytotoxicity rating ([7]; 63 g ai/ha): 40 | ABUTH phytotoxicity rating ([7]; 250 g ai/ha): 50 | CHEAL phytotoxicity rating ([8]; 63 g ai/ha): 30 | CHEAL phytotoxicity rating ([8]; 250 g ai/ha): 40 | AMARE phytotoxicity rating ([9]; 63 g ai/ha, rating scale 0-100): 50 | AMARE phytotoxicity rating [9, 23]: 70 | SORHA phytotoxicity rating ([10]; 63 g ai/ha): 0 | SORHA phytotoxicity rating ([10]; 250 g ai/ha): 0 | SETVI phytotoxicity rating ([11]; 63 g ai/ha): 0 | SETVI phytotoxicity rating ([11]; 250 g ai/ha): 0 | phytotoxicity rating RICE (crop damage) ([12]; 63 g ai/ha): 0 | phytotoxicity rating RICE (crop damage) ([12]; 250 g ai/ha): 0 | phytotoxicity rating CORN (crop damage) ([13]; 63 g ai/ha): 0 | phytotoxicity rating CORN (crop damage) ([13]; 250 g ai/ha): 0 | phytotoxicity rating IPOHE ([14]; 63 g ai/ha): 0 | phytotoxicity rating IPOHE ([14]; 250 g ai/ha): 0 | phytotoxicity rating CASOB ([15]; 63 g ai/ha): 0 | phytotoxicity rating CASOB ([15]; 250 g ai/ha): 0 | phytotoxicity rating DIGSA ([16]; 63 g ai/ha): 0 | phytotoxicity rating DIGSA ([16]; 250 g ai/ha): 0 | phytotoxicity rating ECHCG ([17]; 63 g ai/ha): 0 | phytotoxicity rating ECHCG ([17]; 250 g ai/ha): 0 | phytotoxicity rating ABUTH ([18]; 63 g ai/ha): 0 | phytotoxicity rating ABUTH ([18]; 250 g ai/ha): 0 | phytotoxicity rating CHEAL ([19]; 63 g ai/ha): 20 | phytotoxicity rating CHEAL ([19]; 250 g ai/ha): 0 | phytotoxicity rating SORHA ([20]; 63 g ai/ha): 0 | phytotoxicity rating SORHA ([20]; 250 g ai/ha): 0 | phytotoxicity rating SETVI ([21]; 63 g ai/ha): 0 | phytotoxicity rating SETVI ([21]; 250 g ai/ha): 0 | phytotoxicity rating AMARE ([22]; 63 g ai/ha): 0 | phytotoxicity rating AMARE ([22]; 250 g ai/ha): 0

COc1c(Cl)cc(F)c(-n2c(=O)cc(C(F)(F)F)n(C)c2=O)c1NC(=O)Nc1ccccc1 [Compound 3-4]
phytotoxicity rating RICE (crop damage) ([1]; 63 g ai/ha): 0 | phytotoxicity rating RICE (crop damage) ([1]; 250 g ai/ha): 10 | phytotoxicity rating CORN (crop damage) ([2]; 63 g ai/ha): 0 | phytotoxicity rating CORN (crop damage) ([2]; 250 g ai/ha): 0 | phytotoxicity rating IPOHE ([3]; 63 g ai/ha): 0 | phytotoxicity rating IPOHE ([3]; 250 g ai/ha): 0 | phytotoxicity rating CASOB ([4]; 63 g ai/ha): 0 | phytotoxicity rating CASOB ([4]; 250 g ai/ha): 0 | phytotoxicity rating DIGSA ([5]; 63 g ai/ha): 0 | phytotoxicity rating DIGSA ([5]; 250 g ai/ha): 0 | phytotoxicity rating ECHCG ([6]; 63 g ai/ha): 0 | phytotoxicity rating ECHCG ([6]; 250 g ai/ha): 0 | phytotoxicity rating ABUTH ([7]; 63 g ai/ha): 40 | phytotoxicity rating ABUTH ([7]; 250 g ai/ha): 50 | phytotoxicity rating CHEAL ([8]; 63 g ai/ha): 0 | phytotoxicity rating CHEAL ([8]; 250 g ai/ha): 0 | phytotoxicity rating AMARE ([9]; 63 g ai/ha, rating scale 0-100 (0 no damage, 100 complete death)): 0 | phytotoxicity rating AMARE [9, 23]: 0 | phytotoxicity rating SORHA ([10]; 63 g ai/ha): 0 | phytotoxicity rating SORHA ([10]; 250 g ai/ha): 0 | phytotoxicity rating SETVI ([11]; 63 g ai/ha): 0 | phytotoxicity rating SETVI ([11]; 250 g ai/ha): 0 | Pre-emerge Herbicidal Activity RICE ([12]; 63 g ai/ha): 0 | Pre-emerge Herbicidal Activity RICE ([12]; 250 g ai/ha): 15 | Pre-emerge Herbicidal Activity CORN ([13]; 63 g ai/ha): 0 | Pre-emerge Herbicidal Activity CORN ([13]; 250 g ai/ha): 0 | Pre-emerge Herbicidal Activity IPOHE ([14]; 63 g ai/ha): 0 | Pre-emerge Herbicidal Activity IPOHE ([14]; 250 g ai/ha): 50 | Pre-emerge Herbicidal Activity CASOB ([15]; 63 g ai/ha): 0 | Pre-emerge Herbicidal Activity CASOB ([15]; 250 g ai/ha): 60 | Pre-emerge Herbicidal Activity DIGSA ([16]; 63 g ai/ha): 0 | Pre-emerge Herbicidal Activity DIGSA ([16]; 250 g ai/ha): 10 | Pre-emerge Herbicidal Activity ECHCG ([17]; 63 g ai/ha): 0 | Pre-emerge Herbicidal Activity ECHCG ([17]; 250 g ai/ha): 0 | Pre-emerge Herbicidal Activity ABUTH ([18]; 63 g ai/ha): 0 | Pre-emerge Herbicidal Activity ABUTH ([18]; 250 g ai/ha): 100 | Pre-emerge Herbicidal Activity CHEAL ([19]; 63 g ai/ha): 0 | Pre-emerge Herbicidal Activity CHEAL ([19]; 250 g ai/ha): 100 | Pre-emerge Herbicidal Activity SORHA ([20]; 63 g ai/ha): 0 | Pre-emerge Herbicidal Activity SORHA ([20]; 250 g ai/ha): 10 | Pre-emerge Herbicidal Activity SETVI ([21]; 63 g ai/ha): 20 | Pre-emerge Herbicidal Activity SETVI ([21]; 250 g ai/ha): 60 | Pre-emerge Herbicidal Activity AMARE ([22]; 63 g ai/ha): 0 | Pre-emerge Herbicidal Activity AMARE ([22]; 250 g ai/ha): 100
